Measurements: patent US20250352497A1, “BIGUANIDE BASE COMPOSITIONS, BIGUANIDE BASE PHARMACEUTICAL COMPOSITIONS, AND THEIR PREPARATIONS AND USES” (ADA FORSYTH INSTITUTE, INC., priority 2022, published 2025)

How the values were obtained:
Assay type in all cases: cell-based
[1] = system: model microbiome simulating human oral microbiome; experiment: Bacterial killing effects on model microbiome (optical density at 600 nm)
Protocol: (§1) Saliva samples were collected and pooled from 5 healthy volunteers as a model microbiome simulating human oral microbiome, and used to inoculate SHI medium containing different test compositions and controls.
(§2) 1 mL pooled saliva sample was added to each well of a 24-well plate that had been pre-coated with sterilized, cell-free saliva. The plate was incubated at 37° C. for 16 h in microaerobic conditions (2% O2, 5% CO2, balanced with nitrogen) to allow biofilm formation. After incubation, planktonic portion was collected, optical density was measured at 600 nm and cells were pelleted for DNA isolation. Meanwhile, 1 mL of SHI medium was added to the biofilm portion of each well, biofilm cells were dispersed by scraping and vortex to break the cell aggregates. Optical density was measured at 600 nm and cells were collected for DNA isolation.
However, the pH of the treated biofilm appeared to depend on the CHX base concentration administered. The pH of the biofilm treated with CHX base solutions and CHX base loaded MSN remained under 5.5 when the CHX base concentration was 75 μg/mL or lower. […]

[2] = system: model microbiome simulating human oral microbiome; experiment: pH of model microbiome (supernatant and saliva-derived biofilm) after treatment in the presence of 2% sucrose
Protocol: as §1, §2
Supernatant and biofilms prepared with the model microbiome simulating human oral microbiome according to Example III were treated with embodiments of the CHX base composition (e.g., solution embodiments of the CHX base composition prepared according to Example I (the CHX base solutions); and MSN3 prepared according to Example II(B)(ii)).
Supernatant and biofilms prepared with the model microbiome simulating human oral microbiome according to Example III were treated with CHX base solution (100 μg/mL, prepared according to Example I(A)); MSN3 (100 μg/mL and 125 μg/mL of CHX base, prepared according to Example I(B)); or nothing (control).

[3] = system: model microbiome simulating human oral microbiome; experiment: Total colony forming units in supernatant and biofilm after treatment; settings: supernatant and biofilms
Protocol: as §1, §2
CHX-G and CPC were also evaluated in the same model microbiome prepared in supernatant and biofilms according to Example III.

Row | Compound | cells present after treatment ([1]; Example IV(B): CHX base solution 100 μg/mL, MSN3 100 and 125 μg/mL of CHX base) | survival/elimination of bacteria after treatment ([1]; Example IV, supernatant and biofilms) | pH of treated microbiome/biofilm compared with control ([2]; Example IV, 16 hr, 2% sucrose) | pH of the treated microbiome ([2]; supernatant and biofilms, various concentrations) | bacterial killing compared with MSN3 (200 μg/mL of CHX base) ([3]; 200 μg/mL) | bacteria remaining after treatment ([3]; Example V) | pH of treated biofilms compared with untreated biofilms ([2]; Example V)
1 | [H]/N=C(\N/C(=N/[H])NCCCCCCNC(=N)NC(=N)Nc1ccc(Cl)cc1)Nc1ccc(Cl)cc1 [CHX base, Chlorhexidine] | abundant of cells | without complete elimination of bacteria | higher pH | ≤ 6.9 | – | – | –
2 | N=C(NCCCCCCNC(=N)NC(=N)Nc1ccc(Cl)cc1)NC(=N)Nc1ccc(Cl)cc1.O=C(O)[C@H](O)[C@@H](O)[C@H](O)[C@H](O)CO.O=C(O)[C@H](O)[C@@H](O)[C@H](O)[C@H](O)CO [CHX-G, chlorhexidine digluconate] | – | – | – | – | killed more bacteria | no trace of bacteria | higher pH
